Data taken from patent EP0377642B1, “HERBICIDES FOR WEED CONTROL IN RICE” (E.I. DU PONT DE NEMOURS AND COMPANY, priority 1987, dated 1989).
Read-outs that look alike come from different tables or passages of the source.

What was measured:
Type in all cases: in vivo
[1] = system: direct seeded rice; assay: Field test with Bensulfuron methyl in direct seeded rice, yield (Table 10)
From the text: (§1) Methyl 2-[[[[(4-methoxy-6-methyl-1,3,5-triazin-2-yl)amino]carbonyl]amino]sulfonyl]benzoate (Compound 1) and mixtures thereof with other compounds were applied as a spray (using a hand sprayer) to rice (either transplanted or direct seeded) in several rice growing areas in Southeast Asia and in the U.S. Tables 1-28 contain the results of these tests and clearly exemplify the utility of this invention. The details of each application are included in the appropriate table. [drawing 2]

[2] = system: WEED; assay: Effects in combination with Bensulfuron Methyl and Thiobencarb or Pretilachlor on weed control (Table 24); conditions: rate 25 g ai/ha, scale 0 to 10, treated at 1.0 leaf stage, evaluated four weeks later
From the text: as §1

[3] = system: direct seeded rice; conditions: for PHYTO at 2WAA: scale 0-10;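 on yield: yield in Tons/ha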
From the text: as §1

[4] = system: Sphenoclea zeylanica; assay: Field test applied at 25 DAS in direct seeded rice (Table 13); conditions: scale 0-10
From the text: as §1

[5] = system: Cyperus iria; assay: as above; conditions: scale 0-10
From the text: as §1

[6] = system: rice; assay: Effects in combination with Bensulfuron Methyl and Thiobencarb or Pretilachlor on rice growth (Table 23); conditions: rate 25 g ai/ha; var. Koshihikari, applied 7 days after transplanting, rated 21 days after application
From the text: as §1

[7] = system: Sphenoclea zeylanica; assay: Field test applied at 7 DAS in direct seeded rice (Table 11); conditions: scale 0-10
From the text: as §1

[8] = system: Cyperus difformis; assay: as above; conditions: scale 0-10
From the text: as §1

[9] = system: rice; assay: Herbicidal efficacy with Bensulfuron methyl and 2,4-D in Thailand (Table 18); conditions: 13 days after treatment
From the text: as §1

[10] = system: Sphenoclea zeylanica; assay: as above; conditions: 13 days after treatment
From the text: as §1

[11] = system: Cyperus difformis; assay: as above; conditions: 13 days after treatment
From the text: as §1

[12] = system: Sphenoclea zeylanica; assay: Field test applied at 18 DAS in direct seeded rice (Table 12); conditions: scale 0-10
From the text: as §1

[13] = system: Jussiaea linifolia; assay: as above; conditions: scale 0-10
From the text: as §1

COC(=O)c1ccccc1CS(=O)(=O)NC(=O)Nc1nc(OC)cc(OC)n1 [Bensulfuron methyl, methyl 2-[[[[[(4,6-dimethoxy-2-pyrimidinyl)amino]carbonyl]amino]sulfonyl]methyl]benzoate]
YIELD ([1]; 10 GAI/HA): 3.04 TONS/HA | YIELD ([1]; 20 GAI/HA): 3.34 TONS/HA | WEED CONTROL RATINGS CD ([2]; Cyperus difformis): 1 | WEED CONTROL RATINGS CS ([2]; Cyperus serotinus): 6 | WEED CONTROL RATINGS EO ([2]; Echinochloa oryzicola): 1 | WEED CONTROL RATINGS BL ([2]; Lindernia pyxidaria): 10 | WEED CONTROL RATINGS MV ([2]; Monochoria vaginalis): 10 | WEED CONTROL RATINGS SP ([2]; Sagittaria pygmaea): 8.5 | WEED CONTROL RATINGS SJ ([2]; Scirpus juncoides): 5 | YIELD ([3]; 7 DAS, 10 GM.A.I./HA): 4.92 TONS/HA | PHYTO at 2WAA ([3]; 7 DAS, 10 GM.A.I./HA): 0 | YIELD ([3]; 7 DAS, 15 GM.A.I./HA): 4.99 TONS/HA | PHYTO at 2WAA ([3]; 7 DAS, 15 GM.A.I./HA): 0 | YIELD ([3]; 7 DAS, 20 GM.A.I./HA): 5.01 TONS/HA | PHYTO at 2WAA ([3]; 7 DAS, 20 GM.A.I./HA): 0 | YIELD ([3]; 7 DAS, 30 GM.A.I./HA): 4.67 TONS/HA | PHYTO at 2WAA ([3]; 7 DAS, 30 GM.A.I./HA): 0 | YIELD ([3]; 18 DAS, 10 GM.A.I./HA): 4.61 TONS/HA | PHYTO at 2WAA ([3]; 18 DAS, 10 GM.A.I./HA): 0 | YIELD ([3]; 18 DAS, 15 GM.A.I./HA): 4.49 TONS/HA | PHYTO at 2WAA ([3]; 18 DAS, 15 GM.A.I./HA): 0 | YIELD ([3]; 18 DAS, 20 GM.A.I./HA): 4.61 TONS/HA | PHYTO at 2WAA ([3]; 18 DAS, 20 GM.A.I./HA): 0 | YIELD ([3]; 18 DAS, 30 GM.A.I./HA): 5.17 TONS/HA | PHYTO at 2WAA ([3]; 18 DAS, 30 GM.A.I./HA): 0 | WEED CONTROL at 6 WAA SZ ([4]; 10 GM.A.I./HA): 9.17 | WEED CONTROL at 6 WAA SZ ([4]; 15 GM.A.I./HA): 9.80 | WEED CONTROL at 6 WAA SZ ([4]; 20 GM.A.I./HA): 9.50 | WEED CONTROL at 6 WAA SZ ([4]; 30 GM.A.I./HA): 9.93 | WEED CONTROL at 6 WAA CI ([5]; 10 GM.A.I./HA): 9.67 | WEED CONTROL at 6 WAA CI ([5]; 15 GM.A.I./HA): 9.83 | WEED CONTROL at 6 WAA CI ([5]; 20 GM.A.I./HA): 10 | WEED CONTROL at 6 WAA CI ([5]; 30 GM.A.I./HA): 10 | CROP TOLERANCE DW (Dry weight relative to untreated check) [6]: 79% | CROP TOLERANCE PH (Plant height relative to untreated check) [6]: 89% | CROP TOLERANCE VA (Visual crop injury) [6]: 2.5% | WEED CONTROL at 6 WAA SZ ([7]; 10 GM.A.I./HA): 10 | WEED CONTROL at 6 WAA SZ ([7]; 15 GM.A.I./HA): 10 | WEED CONTROL at 6 WAA SZ ([7]; 20 GM.A.I./HA): 10 | WEED CONTROL at 6 WAA SZ ([7]; 30 GM.A.I./HA): 10 | WEED CONTROL at 6 WAA CD ([8]; 10 GM.A.I./HA): 10 | WEED CONTROL at 6 WAA CD ([8]; 15 GM.A.I./HA): 10 | WEED CONTROL at 6 WAA CD ([8]; 20 GM.A.I./HA): 10 | WEED CONTROL at 6 WAA CD ([8]; 30 GM.A.I./HA): 10 | % CONTROL OR INJURY RICE ([9]; 10 GAI/HA): 0% | % CONTROL OR INJURY RICE ([9]; 15 GAI/HA): 0% | % CONTROL OR INJURY RICE ([9]; 20 GAI/HA): 0% | % CONTROL OR INJURY SZ ([10]; 10 GAI/HA): 99% | % CONTROL OR INJURY SZ ([10]; 15 GAI/HA): 100% | % CONTROL OR INJURY SZ ([10]; 20 GAI/HA): 100% | % CONTROL OR INJURY CD ([11]; 10 GAI/HA): 100% | % CONTROL OR INJURY CD ([11]; 15 GAI/HA): 100% | % CONTROL OR INJURY CD ([11]; 20 GAI/HA): 100% | WEED CONTROL at 6 WAA SZ ([12]; 10 GM.A.I./HA): 5.67 | WEED CONTROL at 6 WAA SZ ([12]; 15 GM.A.I./HA): 6.67 | WEED CONTROL at 6 WAA SZ ([12]; 20 GM.A.I./HA): 5.67 | WEED CONTROL at 6 WAA SZ ([12]; 30 GM.A.I./HA): 9.67 | WEED CONTROL at 6 WAA JL ([13]; 10 GM.A.I./HA): 8.0 | WEED CONTROL at 6 WAA JL ([13]; 15 GM.A.I./HA): 7.67
